{"source": "patent US20090023737A1", "about": "“Imidazo-Pyridazines, Triazolo-Pyridazines and Related Benzodiazepine Receptor Ligands” (NEUROGEN CORPORATION, priority 2004, published 2009)", "biological_target": "benzodiazepine site of the GABAA receptor", "test": "Radioligand binding assay, 3H-Ro15-1788 (Flumazenil), purified rat cortical membranes", "conditions": "previously determined; used in the Cheng-Prusoff equation; read-out: binding dissociation constant (Kd) of 3H-Ro15-1788"}
{"molecule": "CCOC(=O)c1ncn2c1CN(C)C(=O)c1cc(F)ccc1-2", "note": "[^3H-Ro15-1788]", "values": [{"measurement": "Kd", "value": 1, "unit": "nM"}]}
